{"source": "patent US20250072423A1", "about": "“THIOPHENE ACETIC ACID FOR PLANT GROWTH REGULATION” (priority 2023, published 2025)", "key": {"WT Arabidopsis seedlings [1]": {"system": "WT Arabidopsis seedlings", "assay": "Root growth of WT Arabidopsis seedlings in the presence of NPA (Experiment 7)", "format": "in vivo, A. thaliana", "settings": "NPA even at low concentrations (0.5 μM)", "description": "(§1) Arabidopsis Columbia-0 wild type (WT) was used for assessing the effect of TAA on root growth and its effects on the expression of auxin-responsive genes. Seeds of A. thaliana were surface sterilized by suspending in 70% ethanol for 1 minute, followed by treatment with 10% bleach for 20 minutes. After thorough washing with sterile distilled water, the sterilized seeds were plated onto germination medium (half-strength Murashige and Skoog basal medium with vitamins (1/2 MS) medium supplemented with 1% sucrose and 0.7% plant agar) for germination. Germination was initiated by incubating the seeds in darkness at 5° C. for 2 days, followed by transfer to a light environment at 22° C. with a photoperiod of 16-h light/8-h dark for further growth. Stock solutions of TAA were prepared in DMSO (dimethyl sulfoxide). In control treatments, DMSO was used in equal amounts as present in the greatest concentration of TAA tested.\nTo analyze the effect of TAA on root growth in the presence of NPA (N-1-naphthylphthalamic acid), WT Arabidopsis seedlings were germinated as described and uniform-looking 8-day-old seedlings were transferred to germination medium supplemented with different concentrations of TAA (5 and 10 μM) and different concentrations of NPA (0, 0.5, 1, 2, 4, and 8 μM). The seedlings were allowed to grow for 6 days and the plates were photographed at 24 h intervals. […]"}, "tobacco leaf explants": {"system": "tobacco leaf explants", "assay": "Shoot organogenesis from tobacco leaf explants in vitro (Experiment 4)", "format": "cell-based, Nicotiana tabacum L. cv. Petit Havana SRI", "settings": "8 weeks"}, "[2]": {"system": "tomato cotyledon explants", "assay": "Shoot regeneration from tomato cotyledon explants with 1 mg/L BAP (Experiment 3)", "format": "cell-based, tomato cultivar Roma VF", "description": "The sterilized seeds were germinated on half-strength Murashige and Skoog (MS) medium in vitro. Cotyledons from 10-day old seedlings before first true leaves emerged were used as starting explants in all the experiments. The base and tip of the cotyledons were excised and the explants were transferred with the abaxial surface in contact with the culture medium. The basic culture medium consists of MS medium with vitamins supplemented with 30 g/L sucrose and gelled with 0.8% agar, and the pH of the medium was adjusted to 5.8±0.2. […] All experiments were conducted with at least three replicates of 10 explants each.\nTo analyse the effects on shoot regeneration, the basic media was supplemented with 1 mg/L BAP and different concentrations of TAA, IAA, NAA, IBA and 2,4 D (0.05, 0.1, 0.5, 1.0 and 2.0 mg/L) individually. Since there are no previous reports on suitable concentration ranges for TAA in tomato regeneration, concentrations at 50.0, 100.0, 200.0 and 300.0 mg/L were analysed additionally for TAA."}, "WT Arabidopsis seedlings [3]": {"system": "WT Arabidopsis seedlings", "assay": "Root growth of WT Arabidopsis seedlings (Experiment 6)", "format": "in vivo, A. thaliana", "settings": "Arabidopsis thaliana, 144 h; 6 days growth, 8-day-old seedlings; read-out: concentration that reduced the primary root length to 50% of control", "description": "as §1\nTo analyze the effect of TAA on root growth, WT Arabidopsis seedlings were germinated as described and uniform-looking 8-day-old seedlings were transferred to germination medium supplemented with different concentrations of TAA (0.1, 1, 2, 5, 10, 25, 50, and 100 μM) or NAA/IAA/IBA (0.05, 0.1, 1, 2 and 5 μM). For IBA, two additional concentrations (10 and 25 μM) were also analyzed. Seedlings grown on media supplemented with an equal volume of DMSO were used as control. The seedlings were allowed to grow for 6 days and the plates were photographed at 24 h intervals. Primary root length was measured using Image J software. The difference in the number of lateral roots (LR) and root hairs was visually observed. Microscopic images were taken on a Leica Thunder Imager System (Leica Microsystems Ltd., Switzerland) and the images were processed with LAS X software."}, "[4]": {"system": "tomato cotyledon explants", "assay": "Root regeneration from tomato cotyledon explants in vitro (Experiment 2)", "format": "cell-based, tomato cultivar Roma VF", "settings": "0.05 and 0.1 mg/L, no other hormones; for organogenesis from tomato cotyledon explants (root formation): within 7 days", "description": "Seeds of tomato cultivar Roma VF were sterilized by treating with 75% ethanol for 30 seconds at room temperature and washed with sterile water for five times. The seeds were then treated with 15% sodium hypochlorite for 10 minutes and washed five times in sterile water. The sterilized seeds were germinated on half-strength Murashige and Skoog (MS) medium in vitro. Cotyledons from 10-day old seedlings before first true leaves emerged were used as starting explants in all the experiments. The base and tip of the cotyledons were excised and the explants were transferred with the abaxial surface in contact with the culture medium. The basic culture medium consists of MS medium with vitamins supplemented with 30 g/L sucrose and gelled with 0.8% agar, and the pH of the medium was adjusted to 5.8±0.2. Plates were maintained at a light cycle of 16/8 hours day/night, temperature of 26/24° C. day/night, and relative humidity of 70% and subcultured on the same media after 14 days. Observations were made on 7, 14, 21 and 28 days of growth. All experiments were conducted with at least three replicates of 10 explants each.\nIn order to analyze the effect of TAA on root regeneration, the basic media were supplemented with different concentrations of TAA (0.05 and 0.1 mg/L) and further compared with individual effect of widely used auxins (IAA, NAA, IBA, 2,4 D) at similar concentrations."}, "[5]": {"settings": "basic shoot regeneration media: 3% MS media + 2 mg/L kinetin"}, "[6]": {"settings": "1 mg/L IAA added to 3% MS + 2 mg/L kinetin"}}, "data": [{"smiles": "O=C(O)c1ccccc1C(=O)Nc1cccc2ccccc12", "note": "[NPA, N-1-naphthylphthalamic acid, reference compound]", "values": [{"measurement": "primary root length and number of LR", "setting": "WT Arabidopsis seedlings [1]", "value": "reduced primary root length and the number of LR"}]}, {"smiles": "c1coc(CNc2ncnc3[nH]cnc23)c1", "note": "[kinetin, reference compound]", "values": [{"measurement": "average number of shoots per explant", "setting": "tobacco leaf explants; [5]", "value": 3.10}, {"measurement": "total number of shoots regenerated per plate", "setting": "tobacco leaf explants; [5]", "value": 21.7}]}, {"smiles": "O=C(O)Cc1cccc2ccccc12", "note": "[NAA, naphthalene-1-acetic acid]", "values": [{"measurement": "shoot organogenesis", "setting": "[2]; 0.05 mg/L with 1 mg/L BAP", "value": "most explants produced callus, but a few produced shoots"}, {"measurement": "shoot organogenesis", "setting": "[2]; higher concentrations (above 0.05 up to 2.0 mg/L) with 1 mg/L BAP, Day 28", "value": "mostly callus by Day 28, but a few of them showed root formation"}, {"measurement": "IC50", "setting": "WT Arabidopsis seedlings [3]", "value": 50, "unit": "nM"}, {"measurement": "organogenesis from tomato cotyledon explants (root formation)", "setting": "[4]", "value": "rapid root formation"}]}, {"smiles": "O=C(O)Cc1c[nH]c2ccccc12", "note": "[IAA, indole-3-acetic acid, reference compound]", "values": [{"measurement": "increase of number of shoots regenerated per explant versus basic shoot regeneration media", "setting": "tobacco leaf explants; [6]", "value": "more than 3 times"}, {"measurement": "increase of total number of shoots regenerated versus basic shoot regeneration media", "setting": "tobacco leaf explants; [6]", "value": "more than 3 times"}, {"measurement": "shoot organogenesis", "setting": "[2]; 2 mg/L with 1 mg/L BAP", "value": "mostly callus and root formation"}, {"measurement": "shoot organogenesis", "setting": "[2]; 0.05, 0.1, 0.5 and 1.0 mg/L with 1 mg/L BAP", "value": "better shoot formation than NAA"}, {"measurement": "IC50", "setting": "WT Arabidopsis seedlings [3]", "value": 100, "unit": "nM"}, {"measurement": "organogenesis from tomato cotyledon explants (root formation)", "setting": "[4]", "value": "rapid root formation"}]}, {"smiles": "O=C(O)CCCc1c[nH]c2ccccc12", "note": "[IBA, indole-3-butyric acid]", "values": [{"measurement": "shoot organogenesis", "setting": "[2]; 0.05, 0.1 and 0.5 mg/L with 1 mg/L BAP", "value": "callus and well-defined shoot formation"}, {"measurement": "shoot organogenesis", "setting": "[2]; 1.0 and 2.0 mg/L with 1 mg/L BAP", "value": "mostly callus and some root formation"}, {"measurement": "IC50", "setting": "WT Arabidopsis seedlings [3]", "value": 10000, "unit": "nM"}, {"measurement": "organogenesis from tomato cotyledon explants (root formation)", "setting": "[4]", "value": "rapid root formation"}]}, {"smiles": "O=C(O)COc1ccc(Cl)cc1Cl", "note": "[2,4D, 2,4-dichlorophenoxyacetic acid]", "values": [{"measurement": "shoot organogenesis", "setting": "[2]; 0.05, 0.1, 0.5, 1.0 and 2.0 mg/L with 1 mg/L BAP", "value": "did not show any shoot formation"}, {"measurement": "organogenesis from tomato cotyledon explants", "setting": "[4]; by Day 14", "value": "formed more callus and few of the explants showed longer roots"}, {"measurement": "organogenesis from tomato cotyledon explants (root formation)", "setting": "[4]", "value": "the explants enlarged in size and started showing signs of callus formation"}]}]}
